Among the test systems are CAKI-1; RXF 393; UACC-257; KM12; SK-MEL-28; HT-29; K562; MCF7; MDA-N; NCI-H522; ACHN; HOP-62; A549; MOLT-4; U-251; SK-MEL-2; RPMI-8226; MDA-MB-231.
What all share (experiment): inhibition of tumour cell growth, NCI panel, 48 h

Each structure is given as a SMILES string.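 How tested: cells in 96-well plates exposed to compound for 48 hours at five concentrations. The concentration for 50% growth inhibition is given as GI50.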 Active and inactive are the calls of the source. Cut-off read from the data, not from the text of the source: active = GI50 up to about 1.1 µM and inactive = higher.

With `COC(=O)C1=C(OC(=O)/C(=C/c2ccccc2)c2ccc(Cl)cc2)C(C(=O)OC)[C@@]2(O)[C@@H](C(=O)OC)[C@H](C)C[C@@H]1[C@@H]2C(=O)OC` (stereo partly drawn), the GI50 with CAKI-1, in the experiment on RXF 393, in the experiment with UACC-257, in the experiment on KM12, with SK-MEL-28 and with HT-29 was > 100 µM (inactive) throughout. In addition, the GI50 is 2.37 µM (inactive) in the experiment with K562; > 100 µM (inactive) in the experiment with MCF7; > 100 µM (inactive) in the experiment with MDA-N; > 100 µM (inactive) in the experiment with NCI-H522; > 100 µM (inactive) in the experiment with ACHN; > 100 µM (inactive) in the experiment with HOP-62. The GI50 is > 100 µM (inactive) in the experiment with A549; 79.3 µM (inactive) in the experiment on MOLT-4; > 100 µM (inactive) in the experiment with U-251; > 100 µM (inactive) with SK-MEL-2; > 100 µM (inactive) in the experiment with RPMI-8226; > 100 µM (inactive) in the experiment on MDA-MB-231.

On to `O=C(/C=C/c1cccs1)c1cccc(C(=O)/C=C/c2cccs2)n1`, for which the GI50 was 61.4 µM (inactive) in the experiment on CAKI-1; > 48.9 µM (inactive) in the experiment on RXF 393; > 100 µM (inactive) with UACC-257; 6.43 µM (inactive) in the experiment on KM12; 53.2 µM (inactive) in the experiment on SK-MEL-28; 6.21 µM (inactive) in the experiment with HT-29. Moreover, the GI50 was 3.93 µM (inactive) with K562; 1.25 µM (inactive) in the experiment with MCF7; 28.2 µM (inactive) with MDA-N; 22.1 µM (inactive) in the experiment with NCI-H522; 11.5 µM (inactive) in the experiment on ACHN; 25.4 µM (inactive) in the experiment with HOP-62. For the same compound, the GI50 with A549 was > 84.3 µM (inactive); in the experiment with MOLT-4, 2.29 µM (inactive); in the experiment with U-251, 9.1 µM (inactive); in the experiment with SK-MEL-2 it was > 100 µM (inactive); with RPMI-8226, 2.97 µM (inactive); in the experiment on MDA-MB-231, 63.2 µM (inactive).

`COc1cc(C(=O)OC2CC(C)=CC[C@@]3(C)CC[C@](O)(C(C)C)C23)ccc1O` (stereo partly drawn): the GI50 in the experiment with CAKI-1 was 16.3 µM (inactive); with RXF 393, 18.4 µM (inactive); in the experiment with UACC-257, 15.5 µM (inactive); in the experiment with KM12, 15.9 µM (inactive); in the experiment on SK-MEL-28, 30.3 µM (inactive); in the experiment with HT-29, 15.9 µM (inactive). Also, the GI50 in the experiment on K562 is 17.4 µM (inactive); in the experiment with MCF7, 12.4 µM (inactive); in the experiment on MDA-N, 18.3 µM (inactive); with NCI-H522 it was 14.3 µM (inactive); with ACHN, 18.4 µM (inactive); in the experiment on HOP-62 it was 17.2 µM (inactive). In addition, the GI50 in the experiment with A549 is 12.9 µM (inactive); in the experiment on MOLT-4 it was 13.2 µM (inactive); in the experiment with U-251 it was 31.3 µM (inactive); with SK-MEL-2 it was 16.4 µM (inactive); in the experiment with RPMI-8226, 25.6 µM (inactive); in the experiment on MDA-MB-231, 15 µM (inactive).

With `COC(=O)c1ccc(C)cc1C1CN=NC12Cc1cccc(C)c1C2=O` (stereo not drawn), the GI50 was 67.6 µM (inactive) in the experiment on CAKI-1; > 100 µM (inactive) in the experiment with RXF 393; 29.7 µM (inactive) in the experiment on UACC-257; 26.7 µM (inactive) with KM12; 30.7 µM (inactive) in the experiment with SK-MEL-28; 71.6 µM (inactive) in the experiment on HT-29. Besides, the GI50 was 26.7 µM (inactive) in the experiment with K562; 91.2 µM (inactive) with MCF7; 26.2 µM (inactive) with MDA-N; 28.1 µM (inactive) in the experiment with NCI-H522; 38.3 µM (inactive) in the experiment on ACHN; 71.3 µM (inactive) in the experiment with HOP-62. Also, the GI50 was 41.1 µM (inactive) in the experiment with A549; 19.6 µM (inactive) with MOLT-4; 79.1 µM (inactive) with U-251; 23.8 µM (inactive) in the experiment with SK-MEL-2; 20.8 µM (inactive) with RPMI-8226; > 100 µM (inactive) in the experiment with MDA-MB-231.

`N#Cc1cc2c(cc1C#N)SCCSCCCSCCS2`: the GI50 was 22.8 µM (inactive) in the experiment on CAKI-1; 5.92 µM (inactive) in the experiment on RXF 393; > 87.9 µM (inactive) with UACC-257; > 100 µM (inactive) with KM12; > 100 µM (inactive) with SK-MEL-28; > 100 µM (inactive) in the experiment on HT-29. Besides, the GI50 is > 100 µM (inactive) with K562; 28.2 µM (inactive) in the experiment with MCF7; > 100 µM (inactive) with MDA-N; 25.8 µM (inactive) with NCI-H522; 6.93 µM (inactive) in the experiment on ACHN; 1.71 µM (inactive) in the experiment on HOP-62. Besides, the GI50 with A549 was > 83.9 µM (inactive); in the experiment on MOLT-4 it was > 89.9 µM (inactive); with U-251 it was 5.32 µM (inactive); in the experiment on SK-MEL-2, 17.8 µM (inactive); with RPMI-8226 it was > 100 µM (inactive); with MDA-MB-231, 10 µM (inactive).

With `O=C(NNC(=S)Nc1ccccc1)C12CC3CC(CC(C3)C1)C2`, the GI50 with CAKI-1 was 21.9 µM (inactive); in the experiment with RXF 393, 27.7 µM (inactive); with UACC-257 it was 31.7 µM (inactive); in the experiment on KM12, 43.2 µM (inactive); in the experiment on SK-MEL-28, 21.9 µM (inactive); with HT-29 it was 21.3 µM (inactive). Moreover, the GI50 is 12.7 µM (inactive) in the experiment with K562; 19.2 µM (inactive) in the experiment with MCF7; 26.8 µM (inactive) with MDA-N; 28.1 µM (inactive) with NCI-H522; 20.3 µM (inactive) in the experiment with ACHN; 35.2 µM (inactive) with HOP-62. The GI50 in the experiment with A549 is 19.9 µM (inactive); in the experiment with MOLT-4, 10 µM (inactive); in the experiment on U-251, 12.9 µM (inactive); in the experiment on SK-MEL-2 it was 22.1 µM (inactive); in the experiment with RPMI-8226, 17.3 µM (inactive); with MDA-MB-231, 40 µM (inactive).

Turning to `Cc1c2c(c(C)n1-c1ccccc1)C(=O)N(CCSC(=N)N)C2=O`, the GI50 in the experiment with CAKI-1 was 50 µM (inactive); in the experiment on RXF 393, 40.2 µM (inactive); in the experiment on UACC-257 it was 28.8 µM (inactive); in the experiment on KM12, > 100 µM (inactive); in the experiment on SK-MEL-28 it was > 100 µM (inactive); in the experiment on HT-29, > 100 µM (inactive). Further, the GI50 in the experiment with K562 is > 100 µM (inactive); with MCF7, 32.1 µM (inactive); in the experiment on MDA-N, > 100 µM (inactive); in the experiment with NCI-H522, 35.7 µM (inactive); with ACHN it was 32.6 µM (inactive); with HOP-62, 83.6 µM (inactive). Also, the GI50 with A549 was > 100 µM (inactive); in the experiment on MOLT-4, 14.2 µM (inactive); in the experiment on U-251, 68.9 µM (inactive); in the experiment with SK-MEL-2, 31.4 µM (inactive); in the experiment on RPMI-8226, > 100 µM (inactive); in the experiment on MDA-MB-231 it was > 100 µM (inactive).

Turning to `CC(=O)NNc1nc(C)c(C(/C=C/c2ccc([N+](=O)[O-])cc2)=N/N)s1`, the GI50 with CAKI-1 was > 100 µM (inactive); with RXF 393, 55.3 µM (inactive); with UACC-257, 88.1 µM (inactive); with KM12, > 100 µM (inactive); with SK-MEL-28 it was > 100 µM (inactive); in the experiment on HT-29, > 100 µM (inactive). The GI50 with K562 is 55.5 µM (inactive); with MCF7, > 100 µM (inactive); with MDA-N it was > 100 µM (inactive); in the experiment with NCI-H522, > 100 µM (inactive); in the experiment on ACHN it was > 100 µM (inactive); with HOP-62, 68.1 µM (inactive). The GI50 with A549 was > 100 µM (inactive); in the experiment with MOLT-4, > 100 µM (inactive); in the experiment with U-251, > 100 µM (inactive); in the experiment on SK-MEL-2, > 100 µM (inactive); in the experiment on RPMI-8226, 30.9 µM (inactive); with MDA-MB-231, 25.4 µM (inactive).

For `CC1(C)CCC[C@@]2(C)C1CC[C@@]1(CO)O[C@H](C3=CC(=O)OC3O)C[C@H]12` (stereo partly drawn), the GI50 is 15 µM (inactive) in the experiment on CAKI-1; 11 µM (inactive) with RXF 393; 14.9 µM (inactive) in the experiment with UACC-257; 20.8 µM (inactive) in the experiment on KM12; 11.4 µM (inactive) in the experiment on SK-MEL-28; 13 µM (inactive) in the experiment with HT-29. The GI50 in the experiment with K562 was 4.76 µM (inactive); in the experiment on MCF7, 6.82 µM (inactive); in the experiment on MDA-N, 12.6 µM (inactive); with NCI-H522, 3.69 µM (inactive); in the experiment with ACHN, 14 µM (inactive); in the experiment on HOP-62, 14.9 µM (inactive). The GI50 in the experiment on A549 is 30.5 µM (inactive); with MOLT-4, 3.03 µM (inactive); with U-251, 15.1 µM (inactive); with SK-MEL-2, 14.4 µM (inactive); with RPMI-8226 it was 3.87 µM (inactive); in the experiment with MDA-MB-231 it was 18.8 µM (inactive).

As for `COc1ccc(-c2oc3cc(OC)c(OC)c(O)c3c(=O)c2OC)cc1`, the GI50 in the experiment on CAKI-1 is 10.5 µM (inactive); with RXF 393 it was 22.7 µM (inactive); with UACC-257, > 100 µM (inactive); with KM12, > 100 µM (inactive); in the experiment on SK-MEL-28 it was > 100 µM (inactive); with HT-29 it was > 100 µM (inactive). Besides, the GI50 in the experiment with K562 is > 100 µM (inactive); in the experiment on MCF7, 41.6 µM (inactive); in the experiment on MDA-N it was > 100 µM (inactive); in the experiment with NCI-H522 it was 33.7 µM (inactive); in the experiment on ACHN, 33.3 µM (inactive); with HOP-62, 30.3 µM (inactive). For the same compound, the GI50 was > 100 µM (inactive) in the experiment on A549; > 100 µM (inactive) with MOLT-4; 34 µM (inactive) with U-251; 30.6 µM (inactive) in the experiment on SK-MEL-2; > 100 µM (inactive) in the experiment with RPMI-8226; 17 µM (inactive) in the experiment on MDA-MB-231.

On to `NCCCNCCCCN1CC1`, for which the GI50 in the experiment with CAKI-1 was 0.0486 µM (active); in the experiment with RXF 393, 0.705 µM (active); in the experiment with UACC-257, 1.39 µM (inactive); in the experiment on KM12, 6.98 µM (inactive); in the experiment with SK-MEL-28, 7.76 µM (inactive); in the experiment on HT-29 it was 7.05 µM (inactive). Besides, the GI50 in the experiment with K562 was 2.49 µM (inactive); in the experiment on MCF7 it was 28.9 µM (inactive); in the experiment with MDA-N, 3.63 µM (inactive); in the experiment with NCI-H522, 2.81 µM (inactive); in the experiment on ACHN it was 1.3 µM (inactive); with HOP-62 it was 2.72 µM (inactive). The GI50 with A549 was 9.57 µM (inactive); with MOLT-4, 1.26 µM (inactive); in the experiment on U-251, 2.84 µM (inactive); in the experiment with SK-MEL-2 it was 1.69 µM (inactive); in the experiment on RPMI-8226 it was 7.01 µM (inactive); in the experiment on MDA-MB-231 it was 1.4 µM (inactive).

These data come from ChEMBL document CHEMBL1201862, “PubChem BioAssay data set” (2004).
